Reference: the NIST ThermoML archive (doi:10.1007/s10765-010-0773-1)
± gives the expanded uncertainty stated by the source.

Assays:
[1] = refractive index (Na D-line) (dimensionless); conditions: 298.15 K; 101.33 kPa; Liquid; Standard Abbe refractometry
[2] = xn = mol fraction of the nth substance listed; conditions: 101 kPa, Liquid, x2 = 0; for mass density: Vibrating tube method; for speed of sound: Pulse-echo method

SMILES | refractive index [1] | mass density ([2]; 288.15 K) [kg/m3] | speed of sound ([2]; 292.87 K) [m/s] | mass density ([2]; 293.15 K) [kg/m3] | speed of sound ([2]; 298.14 K) [m/s] | mass density ([2]; 298.15 K) [kg/m3] | speed of sound ([2]; 303.12 K) [m/s] | mass density ([2]; 303.15 K) [kg/m3] | speed of sound ([2]; 308.1 K) [m/s] | mass density ([2]; 308.15 K) [kg/m3] | mass density ([2]; 313.15 K) [kg/m3] | speed of sound ([2]; 313.27 K) [m/s] | mass density ([2]; 318.15 K) [kg/m3]
BrCBr [dibromomethane] | 1.3851 ± 0.0011 |  |  |  |  |  |  |  |  |  |  |  | 
CCCCCCC [heptane] + BrCBr |  | 688.15 ± 0.25 | 1152.5 ± 1.6 | 683.94 ± 0.25 | 1129.7 ± 1.6 | 679.7 ± 0.25 | 1108.2 ± 1.6 | 675.44 ± 0.25 | 1086.8 ± 1.6 | 671.15 ± 0.25 | 666.83 ± 0.25 | 1064.7 ± 1.6 | 662.48 ± 0.25
